Bounds are passed on as bounds.

The first experiment deals with C6/36 Aedes albopictus cell line infected with Wolbachia pipientis (Wolbachia strain wAlbB). Put plainly: In vitro insect cell line assay (anti-Wolbachia screen, SYTO 11 high content imaging). It is filed as cell-based. Particulars: 168 h; C6/36 Aedes albopictus cells infected with Wolbachia pipientis wAlbB, 7 days incubation, SYTO 11 imaging; read-out: In vitro anti-Wolbachia activity. How it is done:
A C6/36 Aedes albopictus cell line infected with Wolbachia pipientis (Wolbachia strain wAlbB) derived from Aa23 A. albopictus cell line (O'Neill et al., 1997; Insect Mol Biol; Turner et al., (2006) J. Immunol. 7:1240-1249) was used to screen compounds. Cells were cultured in Leibovitz's L15+L-glutamine supplemented with heat-inactivated Foetal Calf Serum (HI-FCS), non-essential amino acids and tryptose phosphate broth. Culture medium was filter-sterilized through a 0.2 μm filter and stored at 4° C. Compounds were provided as 10 mM stocks in DMSO, diluted to 50 μM working stock to give final concentration of 5 μM on the test plate. Concentrated stocks were frozen at −20° C.
Prior to use in the screening assay, cell cultures were sub-passaged (6 days prior) to provide ˜90% confluent cells on Day 0 of screening assay. On Day 0 (assay set-up), the medium was removed from the stock culture flask and replaced with fresh medium. The cells were detached by scraping and cell density was calculated using an automated cell counter. The cells were then diluted at working density and aliquoted at 90 μl to each well of a Cell Carrier 384 well plate (Perkin Elmer). Cell plates were incubated at 26° C.
Control solution (DMSO-medium) was dispensed at 10 μl per well for “untreated” wells. Test solution (Drug-DMSO) was also dispensed at 10 μl (from working plate) per well for “treated” wells. The plates were incubated at 26° C., inside plastic wallet in incubator, for 7 days.
On Day 7, 25 μl of staining medium/dye (SYTO 11, Life Technologies) was added to each sample well and allowed to stain for 15 minutes in the dark. All the medium was removed from each sample well without disturbing the cells and replaced with 100 μl of fresh medium. Plates were imaged on the Operetta High Content Imaging system (Perkin Elmer) and analyzed using texture analysis through Harmony software (Perkin Elmer). The cell-based screen and analysis are described in detail in Clare et al. (2014) J Biomol Screen.
Consider `FC(F)(F)c1ncccc1CNc1nc(N2CCCCC2C(F)(F)F)nc2ncccc12` (stereo not shown) [Example 259, 2-(2-(trifluoromethyl)piperidin-1-yl)-N-((2-(trifluoromethyl)pyridin-3-yl)methyl)pyrido[2,3-d]pyrimidin-4-amine], for which the EC50 was 0.01 to 1 nM.
`N#CC1CCCN1c1nc(NCc2cccnc2C(F)(F)F)c2cccnc2n1` (stereo not shown) [Example 238, 1-(4-(((2-(trifluoromethyl)pyridin-3-yl)methyl)amino)pyrido[2,3-d]pyrimidin-2-yl)pyrrolidine-2-carbonitrile]: the EC50 was 10 to 100 nM.
Consider `CC(C)(C)Nc1nc(NCc2ccccc2C(F)(F)F)c2sccc2n1` [Example 41, N^2-(tert-butyl)-N^4-(2-(trifluoromethyl)benzyl)thieno[3,2-d]pyrimidine-2,4-diamine], for which the EC50 was 10 to 100 nM.
Take `Fc1ccc(CNc2ncnc3ccsc23)c(C(F)(F)F)c1` [Example 60, N-(4-fluoro-2-(trifluoromethyl)benzyl)thieno[3,2-d]pyrimidin-4-amine]: the EC50 was in the range of 10 to 100 nM.
For the molecule `CCN(CC)c1ncnc2ccsc12` [Example 39], the EC50 lay in the range of 1000 to 100000 nM.
Consider `FC(F)(F)c1ncccc1CNc1nc(N2CCOCC2C2CC2)nc2ncccc12` (stereo not shown) [Example 253, 2-(3-cyclopropylmorpholino)-N-((2-(trifluoromethyl)pyridin-3-yl)methyl)pyrido[2,3-d]pyrimidin-4-amine], for which the EC50 lay within 1 to 10 nM.
On to `CC(C)Nc1nc(NCc2ccccc2S(C)(=O)=O)c2sccc2n1` [Example 117, N^2-isopropyl-N^4-(2-(methylsuifonyl)benzyl)thieno[3,2-d]pyrimidine-2,4-diamine], for which the EC50 is 100 to 1000 nM.
`FC(F)O[C@@H]1CCN(c2nc(NCc3cccnc3C(F)(F)F)c3cccnc3n2)C1` [Example 280, (R)-2-(3-(difluoromethoxy)pyrrolidin-1-yl)-N-((2-(trifluoromethyl)pyridin-3-yl)methyl)pyrido[2,3-d]pyrimidin-4-amine]: the EC50 was 0.01 to 1 nM.
Regarding `CC(Nc1ncnc2ccsc12)c1ccccc1Cl` (stereo not shown) [Example 38, N-(1-(2-chlorophenyl)ethyl)thieno[3,2-d]pyrimidin-4-amine], the EC50 is 1000 to 100000 nM.
For `FC(F)(F)c1ccccc1CNc1nc(CN2CC(C(F)(F)F)C2)nc2ncccc12` [Example 226], the EC50 was in the range of 100 to 1000 nM.
Regarding `FC1(F)CCN(c2nc(N3CCC3c3ccccc3C(F)(F)F)c3cccnc3n2)C1` (stereo not shown) [Example 215, 2-(3,3-difluoropyrrolidin-1-yl)-4-(2-(2-(trifluoromethyl)phenyl)azetidin-1-yl)pyrido(2,3-d]pyrimidine], the EC50 was in the range of 10 to 100 nM.
On to `CC(C)Nc1nc(NC2(c3ccccc3Cl)CC2)c2sccc2n1` [Example 48, N^4-(1-(2-chlorophenyl)cyclopropyl)-N^2-isopropylthieno[3,2-d]pyrimidine-2,4-diamine], for which the EC50 is 100 to 1000 nM.
The same measure, in the same setting: to `FC1(F)CCN(c2nc(NCc3cccnc3C(F)(F)F)c3cccnc3n2)C1` [Example 194, 2-(3,3-difluoropyrrolidin-1-yl)-N-((2-(trifluoromethyl)pyridin-3-yl)methyl)pyrido[2,3-d]pyrimidin-4-amine] belongs 1 to 10 nM; to `FC(F)(F)c1ncccc1CNc1nc(N2CCOC3CC32)nc2ncccc12` (stereo not shown) [Example 294, 2-(2-oxa-5-azabicyclo[4.1.0]heptan-5-yl)-N-((2-(trifluoromethyl)pyridin-3-yl)methyl)pyrido[2,3-d]pyrimidin-4-amine], 0.01 to 1 nM; to `C[C@@H]1CO[C@@H](C)CN1c1nc(NCc2cccnc2C(F)(F)F)c2cccnc2n1` [Example 271, 2-((2S,5R)-2,5-dimethylmorpholino)-N-((2-(trifluoromethyl)pyridin-3-yl)methyl)pyrido[2,3-d]pyrimidin-4-amine], 0.01 to 1 nM.
Still for that read-out and setting: for `CC(C)Nc1nc(NCc2cccc(F)c2)c2sccc2n1` [Example 14, N^4-(3-fluorobenzyl)-N^2-isopropylthieno[3,2-d]pyrimidine-2,4-diamine] the value was 100 to 1000 nM; for `CC(C)Nc1nc(NCc2ccc(C(F)(F)F)cc2)c2cccnc2n1` [Example 129, N^2-isopropyl-N^4-(4-(trifluoromethyl)benzyl)pyrido[2,3-d]pyrimidine-2,4-diamine], 100 to 1000 nM.
As to `CN(Cc1ccc(F)cc1C(F)(F)F)c1ncnc2ccccc12` [Example 75, N-(4-fluoro-2-(trifluoromethyl)benzyl)-N-methylquinazolin-4-amine], the EC50 was in the range of 100 to 1000 nM.
Take `CC(C)Nc1nc(NCc2ccc(S(C)(=O)=O)cc2)c2sccc2n1` [Example 118, N^2-isopropyl-N^4-(4-(methylsuifonyl)benzyl)thieno[3,2-d]pyrimidine-2,4-diamine]: the EC50 fell in the range of 1000 to 100000 nM.
With `Cc1nc(N(C)Cc2ccccc2C(F)(F)F)c2sccc2n1` [Example 63, N,2-dimethyl-N-(2-(trifluoromethyl)benzyl)thieno[3,2-d]pyrimidin-4-amine], the EC50 fell in the range of 10 to 100 nM.
Take `C[C@H]1COCCN1c1nc(NCc2ccccc2C(F)(F)F)c2cccnc2n1` [Example 208, (S)-2-(3-methylmorpholino)-N-(2-(trifluoromethyl)benzyl)pyrido[2,3-d]pyrimidin-4-amine]: the EC50 is below 0.01 nM.
As to `CCNC(=O)Nc1nc(NCc2cccnc2C(F)(F)F)c2cccnc2n1` [Example 207, 1-ethyl-3-(4-(((2-(trifluoromethyl)pyridin-3-yl)methyl)amino)pyrido[2,3-d]pyrimidin-2-yl)urea], the EC50 was in the range of 100 to 1000 nM.
`CC1(C#N)CCN(c2nc(NCc3ccccc3C(F)(F)F)c3cccnc3n2)CC1` [Example 261, (2-(trifluoromethyl)pyridin-3-yl)metha 4-methyl-1-(4-((2-(trifluoromethyl)benzyl)amino)pyrido[2,3-d]pyrimidin-2-yl)piperidine-4-carbonitrile]: the EC50 was below 0.01 nM.
The same measure, in the same setting: for `CC(C)N(C)c1nc(NCc2ccccc2Cl)c2sccc2n1` [Example 33, N^4-(2-chlorobenzyl)-N^2-isopropyl-N^2-methylthieno[3,2-d]pyrimidine-2,4-diamine] the value was 100 to 1000 nM.
Take `FC(F)(F)c1ncccc1C1CCN1c1nc(N2CC(C(F)(F)F)C2)nc2ncccc12` (stereo not shown) [Example 221, 2-(3-(trifluoromethyl)azetidin-1-yl)-4-(2-(2-(trifluoromethyl)pyridin-3-yl)azetidin-1-yl)pyrido[2,3-d]pyrimidine]: the EC50 lay within 1 to 10 nM.
For `Cc1nc(N(C)C(C)c2ccccc2C(F)(F)F)c2sccc2n1` (stereo not shown) [Example 66, N,2-dimethyl-N-(1-(2-(trifluoromethyl)phenyl)ethyl)thieno[3,2-d]pyrimidin-4-amine], the EC50 fell in the range of 1 to 10 nM.
Consider `FC(F)(F)c1ccccc1CNc1nc(NCCN2CCCC2)nc2ccsc12` [Example 91, N^2-(2-(pyrrolidin-1-yl)ethyl)-N^4-(2-(trifluoromethyl)benzyl)thieno[3,2-d]pyrimidine-2,4-diamine], for which the EC50 is 1000 to 100000 nM.
On to `FC(F)(F)c1ncccc1CNc1nc(CN2CC(C(F)(F)F)C2)nc2ncccc12` [Example 231, 2-((3-(trifluoromethyl)azetidin-1-yl)methyl)-N-((2-(trifluoromethyl)pyridin-3-yl)methyl)pyrido[2,3-d]pyrimidin-4-amine], for which the EC50 was 100 to 1000 nM.
Take `COc1cccc(CNc2nc(NC(C)C)nc3ccsc23)c1F` [Example 26, N^4-(2-fluoro-3-methoxybenzyl)-N^2-isopropylthieno[3,2-d]pyrimidine-2,4-diamine]: the EC50 was in the range of 100 to 1000 nM.
In the case of `CC(C)[S+]([O-])c1nc(NCc2cccnc2C(F)(F)F)c2cccnc2n1` (stereo not shown) [Example 178, 2-(isopropylsulfinyl)-N-((2-(trifluoromethyl)pyridin-3-yl)methyl)pyrido[2,3-d]pyrimidin-4-amine], the EC50 fell in the range of 1000 to 100000 nM.
As for `FC(F)(F)c1ncccc1CNc1nc(N2CC(C(F)(F)F)C2)nc2ncccc12` [Example 202, 2-(3-(trifluoromethyl)azetidin-1-yl)-N-((2-(trifluoromethyl)pyridin-3-yl)methyl)pyrido[2,3-d]pyrimidin-4-amine], the EC50 lay within 1 to 10 nM.
As for `FC(F)(F)c1ncccc1CNc1nc(NC2COC2)nc2ncccc12` [Example 158, N^2-(oxetan-3-yl)-N^4-((2-(trifluoromethyl)pyridin-3-yl)methyl)pyrido[2,3-d]pyrimidine-2,4-diamine], the EC50 lay in the range of 100 to 1000 nM.
In the case of `C[C@H]1CN(c2nc(NCc3cccnc3C(F)(F)F)c3cccnc3n2)[C@@H](C)CO1` [Example 279, 2-((2S,5S)-2,5-dimethylmorpholino)-N-((2-(trifluoromethyl)pyridin-3-yl)methyl)pyrido[2,3-d]pyrimidin-4-amine], the EC50 is 0.01 to 1 nM.

Still in this experiment, the particulars now being: C6/36 Aedes albopictus cells infected with Wolbachia pipientis wAlbB, 7 days incubation, SYTO 11 imaging; read-out: In vitro anti-Wolbachia activity.
For “2-((3R)-3,5-dimethylmorpholino)-N-(2-(trifluoromethyl)benzyl)pyrido[2,3-d]pyrimidin-4-amine [Example 302]”, the EC50 was below 0.01 nM.

Values taken from patent US11518760B2 (Liverpool School of Tropical Medicine, priority 2017, dated 2022).
